Measurements as given in patent US9260439B2, “Dihydropyrrolopyrimidine derivatives” (PFIZER INC., priority 2014, dated 2016).

Target: truncated PI3Kα (p110α/iSH2 p85α) (Homo sapiens (Human), UniProt P42336)
Assay: PI3KA_Act fluorescence polarization kinase assay (Ki)
Format: biochemical
Conditions: 1 mM ATP
Outline: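 p110α/iSH2 p85α (0.5 nM) was reacted with 30 μM sonicated PIP2 in 50 mM HEPES pH 7.4, 150 mM NaCl, 5 mM MgCl2, 1 mM DTT and 0.05% CHAPS for 30 min at room temperature, then stopped with EDTA. PIP3 was detected by fluorescence polarization (GST-Grp1 PH domain/TAMRA-PIP3), and Ki came from a Morrison tight-binding fit.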

Chain of truncated PI3Kα (p110α/iSH2 p85α) (P42336 whole entry, the tested form may be a part): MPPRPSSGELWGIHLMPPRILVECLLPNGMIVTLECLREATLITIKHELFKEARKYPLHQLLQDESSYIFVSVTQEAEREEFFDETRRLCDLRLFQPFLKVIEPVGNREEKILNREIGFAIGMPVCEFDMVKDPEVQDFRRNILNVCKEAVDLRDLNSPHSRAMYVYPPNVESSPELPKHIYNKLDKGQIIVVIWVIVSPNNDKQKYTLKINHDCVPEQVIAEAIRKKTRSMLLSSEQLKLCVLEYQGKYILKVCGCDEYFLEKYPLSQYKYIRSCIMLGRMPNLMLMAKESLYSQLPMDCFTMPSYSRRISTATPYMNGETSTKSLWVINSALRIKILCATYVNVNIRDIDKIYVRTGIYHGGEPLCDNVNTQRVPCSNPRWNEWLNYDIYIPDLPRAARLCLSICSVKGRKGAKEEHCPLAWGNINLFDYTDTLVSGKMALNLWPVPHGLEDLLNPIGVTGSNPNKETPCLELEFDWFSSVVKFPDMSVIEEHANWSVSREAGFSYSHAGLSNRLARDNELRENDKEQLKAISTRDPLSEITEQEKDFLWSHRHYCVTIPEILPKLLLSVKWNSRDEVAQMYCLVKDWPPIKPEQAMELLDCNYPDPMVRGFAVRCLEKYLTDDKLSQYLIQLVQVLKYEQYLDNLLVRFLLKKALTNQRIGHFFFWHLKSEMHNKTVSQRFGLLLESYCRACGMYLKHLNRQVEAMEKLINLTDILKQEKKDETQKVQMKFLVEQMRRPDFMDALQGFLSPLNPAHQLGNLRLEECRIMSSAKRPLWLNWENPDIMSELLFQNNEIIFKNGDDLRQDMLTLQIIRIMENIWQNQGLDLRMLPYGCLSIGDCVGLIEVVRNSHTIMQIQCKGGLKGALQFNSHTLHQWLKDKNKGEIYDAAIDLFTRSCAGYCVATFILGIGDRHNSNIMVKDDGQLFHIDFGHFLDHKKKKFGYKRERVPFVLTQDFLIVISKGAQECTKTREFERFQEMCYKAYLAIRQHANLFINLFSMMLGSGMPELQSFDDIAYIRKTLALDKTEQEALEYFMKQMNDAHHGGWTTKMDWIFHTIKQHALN

CC(C)(C)OC(=O)N1CC(F)(C(=O)N2CC[C@](C)(N3CCc4c(-c5cnc(N)nc5)nc(N5CCOCC5)nc43)C2)C1 [Example 359, tert-butyl 3-({(3S)-3-[4-(2-aminopyrimidin-5-yl)-2-(morpholin-4-yl)-5,6-dihydro-7H-pyrrolo[2,3-d]pyrimidin-7-yl]-3-methylpyrrolidin-1-yl}carbonyl)-3-fluoroazetidine-1-carboxylate]
PI3KA_Act Ki: 0.128 nM

C[C@]1(N2CCc3c(-c4cnc(N)nc4)nc(N4CCOCC4)nc32)CCN(C(=O)N2CCC2)C1 [Example 360, {(3S)-3-[4-(2-aminopyrimidin-5-yl)-2-(morpholin-4-yl)-5,6-dihydro-7H-pyrrolo[2,3-d]pyrimidin-7-yl]-3-methylpyrrolidin-1-yl}(azetidin-1-yl)methanone]
PI3KA_Act Ki: <0.018 nM

C[C@@]1(N2CCc3c(-c4cnc(N)nc4)nc(N4CCOCC4)nc32)CCN(C(=O)N2CCC2)C1 [Example 361, {(3R)-3-[4-(2-aminopyrimidin-5-yl)-2-(morpholin-4-yl)-5,6-dihydro-7H-pyrrolo[2,3-d]pyrimidin-7-yl]-3-methylpyrrolidin-1-yl}(azetidin-1-yl)methanone]
PI3KA_Act Ki: 0.078 nM

CC1(C)CN[C@@H]1C(=O)N1CC[C@](C)(N2CCc3c(-c4cnc(N)nc4)nc(N4CCOCC4)nc32)C1.Cl [Example 362, {(3S)-3-[4-(2-aminopyrimidin-5-yl)-2-(morpholin-4-yl)-5,6-dihydro-7H-pyrrolo[2,3-d]pyrimidin-7-yl]-3-methylpyrrolidin-1-yl}[(2S)-3,3-dimethylazetidin-2-yl]methanone hydrochloride]
PI3KA_Act Ki: 0.041 nM

C[C@]1(N2CCc3c(-c4cnc(N)nc4)nc(N4CCOCC4)nc32)CCN(C(=O)N2CC(C#N)C2)C1 [Example 363, 1-({(3S)-3-[4-(2-aminopyrimidin-5-yl)-2-(morpholin-4-yl)-5,6-dihydro-7H-pyrrolo[2,3-d]pyrimidin-7-yl]-3-methylpyrrolidin-1-yl}carbonyl)azetidine-3-carbonitrile]
PI3KA_Act Ki: 0.039 nM

C[C@@]1(N2CCc3c(-c4cnc(N)nc4)nc(N4CCOCC4)nc32)CCN(C(=O)N2CC(C#N)C2)C1 [Example 364, 1-({(3R)-3-[4-(2-aminopyrimidin-5-yl)-2-(morpholin-4-yl)-5,6-dihydro-7H-pyrrolo[2,3-d]pyrimidin-7-yl]-3-methylpyrrolidin-1-yl}carbonyl)azetidine-3-carbonitrile]
PI3KA_Act Ki: 0.262 nM

C[C@@]1(N2CCc3c(-c4cnc(N)nc4)nc(N4CCOCC4)nc32)CCN(C(=O)N2CC(O)C2)C1 [Example 365, {(3R)-3-[4-(2-aminopyrimidin-5-yl)-2-(morpholin-4-yl)-5,6-dihydro-7H-pyrrolo[2,3-d]pyrimidin-7-yl]-3-methylpyrrolidin-1-yl}(3-hydroxyazetidin-1-yl)methanone]
PI3KA_Act Ki: 0.063 nM

C[C@]1(N2CCc3c(-c4cnc(N)nc4)nc(N4CCOCC4)nc32)CCN(C(=O)N2CC(O)C2)C1 [Example 366, {(3S)-3-[4-(2-aminopyrimidin-5-yl)-2-(morpholin-4-yl)-5,6-dihydro-7H-pyrrolo[2,3-d]pyrimidin-7-yl]-3-methylpyrrolidin-1-yl}(3-hydroxyazetidin-1-yl)methanone]
PI3KA_Act Ki: 0.021 nM

COC1CN(C(=O)N2CC[C@](C)(N3CCc4c(-c5cnc(N)nc5)nc(N5CCOCC5)nc43)C2)C1 [Example 367, {(3S)-3-[4-(2-aminopyrimidin-5-yl)-2-(morpholin-4-yl)-5,6-dihydro-7H-pyrrolo[2,3-d]pyrimidin-7-yl]-3-methylpyrrolidin-1-yl}(3-methoxyazetidin-1-yl)methanone]
PI3KA_Act Ki: <0.018 nM

COC1CN(C(=O)N2CC[C@@](C)(N3CCc4c(-c5cnc(N)nc5)nc(N5CCOCC5)nc43)C2)C1 [Example 368, {(3R)-3-[4-(2-aminopyrimidin-5-yl)-2-(morpholin-4-yl)-5,6-dihydro-7H-pyrrolo[2,3-d]pyrimidin-7-yl]-3-methylpyrrolidin-1-yl}(3-methoxyazetidin-1-yl)methanone]
PI3KA_Act Ki: 0.127 nM

CC1(O)CN(C(=O)N2CC[C@](C)(N3CCc4c(-c5cnc(N)nc5)nc(N5CCOCC5)nc43)C2)C1 [Example 369, {(3S)-3-[4-(2-aminopyrimidin-5-yl)-2-(morpholin-4-yl)-5,6-dihydro-7H-pyrrolo[2,3-d]pyrimidin-7-yl]-3-methylpyrrolidin-1-yl}(3-hydroxy-3-methylazetidin-1-yl)methanone]
PI3KA_Act Ki: <0.018 nM

CC(C)(C)OC(=O)N1CC[C@H]1C(=O)N1CC[C@](C)(N2CCc3c(-c4cnc(N)nc4)nc(N4CCOCC4)nc32)C1 [Example 370, tert-butyl (2S)-2-({(3S)-3-[4-(2-aminopyrimidin-5-yl)-2-(morpholin-4-yl)-5,6-dihydro-7H-pyrrolo[2,3-d]pyrimidin-7-yl]-3-methylpyrrolidin-1-yl}carbonyl)azetidine-1-carboxylate]
PI3KA_Act Ki: 0.184 nM

C[C@]1(N2CCc3c(-c4cnc(N)nc4)nc(N4CCOCC4)nc32)CCN(C(=O)[C@@H]2CCCO2)C1 [Example 371, {(3S)-3-[4-(2-aminopyrimidin-5-yl)-2-(morpholin-4-yl)-5,6-dihydro-7H-pyrrolo[2,3-d]pyrimidin-7-yl]-3-methylpyrrolidin-1-yl}[(2S)-tetrahydrofuran-2-yl]methanone]
PI3KA_Act Ki: 0.091 nM

C[C@]1(N2CCc3c(-c4cnc(N)nc4)nc(N4CCOCC4)nc32)CCN(C(=O)[C@H]2CCCO2)C1 [Example 372, {(3S)-3-[4-(2-aminopyrimidin-5-yl)-2-(morpholin-4-yl)-5,6-dihydro-7H-pyrrolo[2,3-d]pyrimidin-7-yl]-3-methylpyrrolidin-1-yl}[(2R)-tetrahydrofuran-2-yl]methanone]
PI3KA_Act Ki: 0.040 nM

C[C@]1(N2CCc3c(-c4cnc(N)nc4)nc(N4CCOCC4)nc32)CCN(C(=O)[C@H]2CCOC2)C1 [Example 373, {(3S)-3-[4-(2-aminopyrimidin-5-yl)-2-(morpholin-4-yl)-5,6-dihydro-7H-pyrrolo[2,3-d]pyrimidin-7-yl]-3-methylpyrrolidin-1-yl}[(3S)-tetrahydrofuran-3-yl]methanone]
PI3KA_Act Ki: 0.028 nM

C[C@]1(N2CCc3c(-c4cnc(N)nc4)nc(N4CCOCC4)nc32)CCN(C(=O)[C@@H]2CCOC2)C1 [Example 374, {(3S)-3-[4-(2-aminopyrimidin-5-yl)-2-(morpholin-4-yl)-5,6-dihydro-7H-pyrrolo[2,3-d]pyrimidin-7-yl]-3-methylpyrrolidin-1-yl}[(3R)-tetrahydrofuran-3-yl]methanone]
PI3KA_Act Ki: 0.027 nM

C[C@]1(N2CCc3c(-c4cnc(N)nc4)nc(N4CCOCC4)nc32)CCN(C(=O)[C@@H]2CCCN2)C1.Cl [Example 377, {(3S)-3-[4-(2-aminopyrimidin-5-yl)-2-(morpholin-4-yl)-5,6-dihydro-7H-pyrrolo[2,3-d]pyrimidin-7-yl]-3-methylpyrrolidin-1-yl}[(2S)-pyrrolidin-2-yl]methanone hydrochloride]
PI3KA_Act Ki: 0.026 nM

C[C@]1(N2CCc3c(-c4cnc(N)nc4)nc(N4CCOCC4)nc32)CCN(C(=O)[C@@H]2CCC(=O)N2)C1 [Example 378, (5S)-5-({(3S)-3-[4-(2-aminopyrimidin-5-yl)-2-(morpholin-4-yl)-5,6-dihydro-7H-pyrrolo[2,3-d]pyrimidin-7-yl]-3-methylpyrrolidin-1-yl}carbonyl)pyrrolidin-2-one]
PI3KA_Act Ki: 0.082 nM
